Test results: PubChem BioAssay AID1645848
≈ marks a conversion by molar mass, not a printed value.

Conditions: buffer; pH 7.4; 6.0 h; 150.0 µM
For `Cc1cccc(S(=O)(=O)c2cn(Cc3ccccc3)c3cc(N4CCCCC4C)c(F)cc3c2=O)c1` (stereo not given), the solubility kinetic was < 1 µg/mL. In the case of `O=C1CCCC2=C1C(c1ccncc1Cl)N=C(Nc1nc3ccccc3o1)N2` (stereo not given), the solubility kinetic is reported as 8.82 µg/mL (≈ 22.4 µM). In the case of `CCCCn1cnc2cc(NC(=O)c3cc(OC)c(OC)c(OC)c3)ccc21`, the solubility kinetic is reported as 48.1 µg/mL (≈ 125 µM). In the case of `COc1ccc(NC(=O)c2c(C)c(C(C)=O)c(C)n2C)cc1S(=O)(=O)Nc1ccc(Br)cc1`, the solubility kinetic is reported as < 1 µg/mL. In the case of `COC(=O)C1=C(C)NC(=O)CC1C(=O)Nc1ccc(Cl)cc1` (stereo not given), the solubility kinetic is reported as 31.2 µg/mL (≈ 96.8 µM). `Cc1ccc2[nH]c(-c3ccccc3)cc(=O)c2c1` showed a solubility kinetic of 3.41 µg/mL (≈ 14.5 µM). For `O=C(Nc1ccc(-c2nc3cc(NC(=O)c4ccccc4Cl)ccc3o2)cc1)c1ccccc1Cl`, the solubility kinetic was < 1 µg/mL. With `CN(C(=O)CNC(=O)c1cc(F)ccc1OCC(=O)Nc1ccc(I)cc1)c1ccc(F)cc1` the solubility kinetic was < 1 µg/mL. In the case of `CSc1ncc(Cl)c(C(=O)Nc2c(C)cccc2C)n1`, the solubility kinetic is reported as 1.91 µg/mL (≈ 6.19 µM). With `Cc1ccc(SC2=NS(=O)(=O)c3ccccc32)c(C)c1` the solubility kinetic was < 1 µg/mL. With `CCOC(=O)C1CCN(C(=O)C2(NC(=O)Nc3ccccc3Cl)CCCC2)CC1` the solubility kinetic was 41.8 µg/mL (≈ 99 µM). `Cc1cnc(-c2ccccc2C(C)C)nc1NCc1ccc(-n2ccnn2)cc1` gave a solubility kinetic of 6.61 µg/mL (≈ 17.2 µM). For `CC(=O)Nc1ccc(C(=O)Nc2ccccc2N)cc1`, the solubility kinetic was > 40 µg/mL. Compound `CC1=C(C(=O)Nc2nncs2)C(c2nn(C)cc2Cl)N=C(Nc2nc3ccccc3o2)N1` (stereo not given) has a solubility kinetic of 16.3 µg/mL (≈ 34.6 µM). For `COC[C@@H]1CN(C(=O)c2n[nH]c3ccccc23)C[C@H]1c1nc(C)no1`, the solubility kinetic was > 100 µg/mL. `COCc1cc(C)nc(SCC(=O)c2ccc(O)c(O)c2)c1C#N` showed a solubility kinetic of 13.2 µg/mL (≈ 38.2 µM). In the case of `CC1=C(C(=O)Nc2ccccc2)C(c2ccc[nH]2)n2ncnc2N1` (stereo not given), the solubility kinetic is reported as 9.06 µg/mL (≈ 28.3 µM). With `Cn1c(=O)c2c(-c3ccc(Br)cc3)n(CCc3ccccc3)cc2n(C)c1=O` the solubility kinetic was 14.7 µg/mL (≈ 33.5 µM). With `Cc1cccc([C@H]2[C@@H]3C=CC[C@@H](C)[C@@H]3C(=O)N2Cc2ccccc2)c1` the solubility kinetic was < 1 µg/mL. Work on `Cc1cnc(CNc2nc(-c3ccccc3Cl)nc3ccccc23)cn1` yielded a solubility kinetic of 41.9 µg/mL (≈ 116 µM). In the case of `O=C(Nc1ccc(S(=O)(=O)Nc2nccs2)cc1)c1cccnc1`, the solubility kinetic is reported as > 53 µg/mL. Work on `NC(=O)C1CCN(c2nc(-c3ccc([N+](=O)[O-])cc3)cs2)CC1` yielded a solubility kinetic of 1.7 µg/mL (≈ 5.1 µM). Compound `CC(C)NC(=O)c1nc(-c2ccc(Cl)nc2)c2ccccn12` has a solubility kinetic of 17.2 µg/mL (≈ 54.6 µM). In the case of `CN1C(=O)c2ccccc2[S@](=O)c2ccc(C(=O)NCc3ccc(Cl)cc3)cc21`, the solubility kinetic is reported as 4.37 µg/mL (≈ 10.3 µM). For `CNc1nc(-c2ccc3c(N)n[nH]c3c2)cc(N2C[C@@H](C(=O)NC3CCCCC3)CC[C@H]2C)n1`, the solubility kinetic was 15.2 µg/mL (≈ 32.9 µM). For `CCCc1cc(=O)oc2c3c(c4c(c12)OC(C)(C)C=C4)OC(C)C(C)C3O` (stereo not given), the solubility kinetic was < 1 µg/mL. `Cc1cc(NC(=S)N2CCN(c3cccc(C(F)(F)F)c3)CC2)nc2ccccc12` gave a solubility kinetic of 4.33 µg/mL (≈ 10.1 µM). `CCN1CCN(CC(=O)Nc2ccc(-c3cccc4c(=O)cc(N5CCOCC5)oc34)c3sc4ccccc4c23)CC1` showed a solubility kinetic of 63.6 µg/mL (≈ 109 µM). In the case of `Fc1ccc(Nc2nc(-c3ccncc3)ncc2-c2ccccc2)cc1F`, the solubility kinetic is reported as < 1 µg/mL. In the case of `COc1ccc(C)cc1NC(=O)c1cnc(-c2ccc(F)cc2)nc1-c1ccncc1`, the solubility kinetic is reported as < 1 µg/mL. For `O=C(Nc1ccccc1)C1CCN(c2ncc(-c3ccc4c(c3)OCCCO4)s2)CC1`, the solubility kinetic was < 1 µg/mL. Work on `COc1cccc(CN2CCCC(c3nc(-c4ccncc4)ncc3-c3ccccc3)C2)c1O` (stereo not given) yielded a solubility kinetic of 4.29 µg/mL (≈ 9.47 µM). With `O=C([C@H](Cc1ccc(O[S+](=O)([O-])c2cccc3cnccc23)cc1)N[S+](=O)([O-])c1cccc2cnccc12)N1CCN(Cc2ccccc2)CC1` the solubility kinetic was < 1 µg/mL. For `Fc1ccccc1Nc1nc(-c2ccncc2)nc2ccccc12`, the solubility kinetic was < 1 µg/mL. With `O=C(O)CNC(=O)c1c(O)c2ccccc2n(Cc2ccccc2)c1=O` the solubility kinetic was > 52 µg/mL. For `Cc1noc(C)c1-c1ccc(Nc2nc(-c3ccncc3)nc3ccccc23)cc1F`, the solubility kinetic was < 1 µg/mL. In the case of `Cc1nc2sccn2c(=O)c1S(=O)(=O)Nc1ccc(N2CCN(C)CC2)cc1`, the solubility kinetic is reported as > 62 µg/mL. With `O=[N+]([O-])c1ccc(/C=N/n2c(CO)nc3ccccc32)s1` the solubility kinetic was < 1 µg/mL. Compound `CC(C)c1ccccc1-c1ncc(F)c(NCC2CCN(c3cnccn3)C2)n1` (stereo not given) has a solubility kinetic of 32.1 µg/mL (≈ 81.7 µM). Work on `CN(C)CCNC(=O)c1nc2nc(-c3ccccc3)c(-c3cccc(Cl)c3)cc2n1C` yielded a solubility kinetic of 66.8 µg/mL (≈ 154 µM). For `CC(=O)Nc1ccc(NC(=O)C(NS(=O)(=O)c2ccc(Br)s2)c2ccccc2)cc1` (stereo not given), the solubility kinetic was < 1 µg/mL. In the case of `O=C(Cc1ccc(Cl)c(Cl)c1)Nc1ccc(S(=O)(=O)Nc2ccccc2)cc1`, the solubility kinetic is reported as < 1 µg/mL. In the case of `O=C1CCCC2=C1C(c1[nH]ncc1Cl)N=C(Nc1nc3c(Br)cccc3o1)N2` (stereo not given), the solubility kinetic is reported as < 1 µg/mL. `Cc1cc(Nc2nc(-c3ccncc3)nc3ccccc23)n[nH]1` showed a solubility kinetic of 1.1 µg/mL (≈ 3.65 µM). `CCOC(=O)c1ccc(NC2CCCCC2)c(N)c1` gave a solubility kinetic of 31 µg/mL (≈ 118 µM). `Nc1nc2c(s1)C(c1cc(Cl)ccc1F)CC(=O)N2` (stereo not given) showed a solubility kinetic of 3.78 µg/mL (≈ 12.7 µM). Compound `CCC(CC)C(=O)NC[C@@H]1C=C(C)[C@H](Cc2nc3c(C)cccc3[nH]2)C[C@H]1C(C)C` has a solubility kinetic of 4.34 µg/mL (≈ 10.6 µM). With `COc1ccc(NC(=O)C23CC4CC(CC(C4)C2)C3)cc1[S+](=O)([O-])Nc1ccc(Br)cc1` the solubility kinetic was < 1 µg/mL. In the case of `CC(=O)c1c(C)[nH]c(C(=O)Nc2ccc(Cl)cc2)c1C`, the solubility kinetic is reported as 1.96 µg/mL (≈ 6.72 µM). Work on `Cc1ccc(OCCn2c(CCNC(=O)N3CCCCC3)nc3ccccc32)cc1` yielded a solubility kinetic of 9.07 µg/mL (≈ 22.3 µM). With `CCCN1CNc2c(c(=O)[nH]c(=S)n2Cc2ccc(OC)c(OC)c2)C1` the solubility kinetic was > 56 µg/mL. With `Cc1ccccc1C(=O)N1CCc2cc(-n3cc(NC(=O)Cc4ccccc4)cn3)ccc21` the solubility kinetic was < 1 µg/mL. Compound `COc1ccc(-n2nc(C3CCCN(C(=O)Nc4ccccc4)C3)[nH]c2=O)cc1` (stereo not given) has a solubility kinetic of 34.9 µg/mL (≈ 88.8 µM). With `COc1ccc(C2=Nn3c(nnc3-c3ccncc3)SC2)cc1` the solubility kinetic was 9.06 µg/mL (≈ 28 µM). In the case of `Cc1cnccc1-c1nc(Nc2ccc(F)c(F)c2)c2ccccc2n1`, the solubility kinetic is reported as 1.43 µg/mL (≈ 4.09 µM). `O=C(NCc1ccc(S(=O)(=O)c2cccc(C(F)(F)F)c2)cc1)c1cnc2[nH]ncc2c1` gave a solubility kinetic of 5.88 µg/mL (≈ 12.8 µM). For `COc1ccc(Cl)cc1C(=O)Nc1ccc(NC(=O)c2ccco2)cc1`, the solubility kinetic was < 1 µg/mL. Compound `Nc1nc(Nc2ccc(S(N)(=O)=O)cc2)nn1C(=O)c1c(F)cccc1F` has a solubility kinetic of 45.6 µg/mL (≈ 116 µM). With `COc1ccc(-c2cc(-c3cccc4[nH]ncc34)cn3cncc23)cn1` the solubility kinetic was 5.52 µg/mL (≈ 16.2 µM). For `O=C1CCCC2=C1C(c1ccccc1Br)N=C(Nc1nc3ccccc3o1)N2` (stereo not given), the solubility kinetic was < 1 µg/mL. With `CC1(C)CC2CC(C)(CN2S(=O)(=O)c2ccc(C(=O)Nc3cccc(S(=O)(=O)N4CCOCC4)c3)cc2)C1` (stereo not given) the solubility kinetic was < 1 µg/mL. In the case of `C=CC(=O)Nc1cccc(Oc2nc(Nc3ccc(N4CCN(C)CC4)cc3)ncc2Cl)c1`, the solubility kinetic is reported as < 1 µg/mL. With `Cc1ccc(-c2csc(NC(=O)c3ccccc3NS(=O)(=O)c3ccc(C)cc3)n2)cc1` the solubility kinetic was < 1 µg/mL. Work on `COc1ccc(C(=O)N[C@@H]2CCC[C@@H]2C(=O)N2CCC(Cc3ccccc3)CC2)cc1` yielded a solubility kinetic of 17.9 µg/mL (≈ 42.6 µM). With `CN1CCN(c2ccc(Nc3nc(-c4ccncc4)nc4ccccc34)cc2F)CC1` the solubility kinetic was 18.7 µg/mL (≈ 45.1 µM). With `COc1cc(C(=O)NC2CCCc3c2[nH]c2c(Cl)cccc32)cc(OC)c1OC` (stereo not given) the solubility kinetic was < 1 µg/mL. Work on `O=C(Nc1ccccc1)C1CCN(c2nc(-c3ccc(Br)cc3)cs2)CC1` yielded a solubility kinetic of 5.11 µg/mL (≈ 11.5 µM). In the case of `CC(=O)c1c(C)[nH]c(C(=O)Nc2cccc(S(=O)(=O)Nc3ccc(Br)c(F)c3)c2)c1C`, the solubility kinetic is reported as < 1 µg/mL. For `Cc1ccnc(NC(=S)N2CCN(c3cccc(Cl)c3Cl)CC2)c1`, the solubility kinetic was 2.51 µg/mL (≈ 6.58 µM). Work on `COc1cc(O)c([C@H](CC(=O)N2CC(C)CC(C)C2)c2ccc3c(c2)OCO3)c(OC)c1` (stereo not given in full) yielded a solubility kinetic of 2.51 µg/mL (≈ 5.69 µM).
